Assay results as given in patent US11040034B2 (priority 2016, dated 2021).
Read-outs that look alike come from different tables or passages of the source.

Experiments:
[1] = rat liver microsomes
[2] = cynomolgus monkey liver microsomes

- metabolic stability in comparison to comparison example [1]: greater metabolic stability
- metabolic stability in comparison to comparison example [2]: greater metabolic stability
Compound: CCS(=O)(=O)NCc1cc(-c2nc3cc(F)c(F)cc3n2C2CC2)cnn1 [Example 52, N-((5-(1-Cyclopropyl-5,6-difluoro-1H-benzo[d]imidazol-2-yl)pyridazin-3-yl)methyl)ethanesulfonamide]
